Data set [1] has as its system human epithelial cells. The data set is described as follows: tests of toxicity on human epithelial cells. It is filed as cell-based. The settings on record: approximate levels of 0.25 millimole concentrations; compared with controls.
Data set [2] concerns E. Coli. The data set is described as follows: challenging the growth of E. Coli with measurement of optical density of media. It is filed as cell-based. The settings on record: same optical density reduction; comparator 4-chlorophenyl-2-thienyliodonium bromide. The text has this: In an experiment challenging the growth of E. Coli with measurement of optical density of media, the present iodonium composition, 3,5-dimethyl 4-chlorophenyl 2-thienyl iodonium bromide, suppressed the optical density of the E. Coli media at one tenth the concentration needed to accomplish the same optical density reduction utilizing 4-chlorophenyl-2-thienyliodonium bromide. Optical density of the media is a semi-quantitative measure of the presence of growing bacteria. Reduced density indicates the test compounds are retarding bacterial growth. Thus, 3,5-dimethyl 4-chlorophenyl 2-thienyl iodonium bromide, which is non-toxic to mammals, has greater antimicrobial activity than 4-chlorophenyl-2-thienyliodonium bromide.

Data set [3] concerns several strains of Staphylococcus aurelius, including Methicillin-resistant Staphylococcus aureus isolates. The experiment in a line: MIC50 on Staphylococcus strains including Methicillin-resistant Staphylococcus aureus isolates. The class given is cell-based. The settings on record: same bacteria strains, incl. MRSA isolates; comparator 4-chlorophenyl 2-thienyl iodonium chloride.

Data set [4] has as its system mice. The settings on record: cited from earlier work.

Turning to `Clc1ccc([I+]c2cccs2)cc1.[Br-]` [4-chlorophenyl-2-thienyliodonium bromide, reference compound], the “toxicity on human epithelial cells” value in data set [1] is “lack of toxicity similar to that of controls”.

Take `Cc1cc([I+]c2cccs2)cc(C)c1Cl.[Br-]` [3,5-dimethyl 4-chlorophenyl 2-thienyl iodonium bromide]: the “concentration needed to suppress optical density of E. Coli media, as fraction of that needed with 4-chlorophenyl-2-thienyliodonium bromide” value in data set [2] was “one tenth”. For the same compound, the “MIC50 as fraction of the MIC50 for 4-chlorophenyl 2-thienyl iodonium chloride” value in data set [3] is on record as “one fifth”. Moreover, the “toxicity on human epithelial cells” value in data set [1] is listed as “lack of toxicity similar to that of controls”.

On to `Clc1ccc([I+]c2cccs2)cc1.[Cl-]` [4-chlorophenyl-2-thienyliodonium chloride], for which the “oral median lethal dose (LD50)” value in data set [4] was “greater than 4000 mg/kg”.

The values are drawn from patent US8053478B1, “Antimicrobial diaryl iodonium compositions and method” (Cornell Development Group, LLC, priority 2007, dated 2011).
